Earlier results in patent publication US20170056386A1, “TOPICAL ANTIFUNGAL COMPOSITION FOR TREATING ONYCHOMYCOSIS” (Polichem SA, priority 2014, published 2017).

System: onychomycosis
Conditions: oral administration

## CN(C/C=C/C#CC(C)(C)C)Cc1cccc2ccccc12 [terbinafine]
  Complete cure (patients): 38%
